The text below walks through data of patent publication US20250276980A1, “SALTS OF A HETEROCYCLIC COMPOUND AND CRYSTALLINE FORMS, PROCESSES FOR PREPARING, THERAPEUTIC USES, AND PHARMACEUTICAL COMPOSITIONS THEREOF” (Sunovion Pharmaceuticals Inc., priority 2020, published 2025).

The structures appear in SMILES notation. “Also recorded” adds a separate entry of the source. Read-outs that look alike come from different tables or passages of the source.

Holding throughout (format): physicochemical
The nature of data set [1]: Thermogravimetric analysis (TGA). The conditions noted are these: for TG weight loss: from 70° C., hydrochloride. On the procedure:
TGA analyses were performed using a TA Instruments TGA Q500 thermogravimetric analyzer. Each sample was analyzed on a platinum pan, heated under a nitrogen purge at a rate of 10° C./min, from room temperature to 250° C. or 300° C.
Thermo-Gravimetric Analyzer (TGA) analyses were performed using TGA Q500 thermogravimetric analyzer (TA Instruments). Each sample was analyzed on a platinum pan. The measurement condition is shown below: • Atmosphere: Nitrogen • Elevated temperature rate: 10° C./min • Temperature range: From room temperature to 250 or 300° C.

Data set [2] is described as follows: Temperature controlled XRPD (crystal form stability on heating). The conditions noted are these: up to melting. As for the experimental part:
Temperature controlled XRPD was measured by the X'pert-MPD with an Anton Paar TCU 100 Temperature Control Unit. Sample was measured from 30° C. to 250° C. or 270° C. with 10° C. increments. Measurement conditions were as follows: range: 4-30°, step: 0.017°, time per step: 100 s.
FT-Raman, XRPD, DSC, TGA, and DVS instruments and techniques were similar to those in Example 3. Temperature controlled XRPD was measured by X'pert-Pro MIPD (Spectris) with TCU 100 Temperature Control Unit (Anton Paar). The temperature of the sampling stage was increased step by step as programmed and XRPD patterns of sample were measured at each step. The measurement condition is shown below: • Range angle: From 4 to 30° • Step size: 0.017° • Time per step: 100 s

Data set [3] can be described thus: Dynamic vapor sorption (DVS) moisture sorption isotherm, Hiden IGA-sorp. The conditions noted are these: for weight gain when humidity increased from 0% RH to 95% RH: 25° C., 0% RH up to 95% RH. On the procedure:
(§1) DVS moisture sorption isotherms were generated using a Hiden Analytical IGA-sorp moisture sorption analyzer. Samples were run as received without pre-analysis drying. Each sample was equilibrated between about 30 and 120 minutes at each relative humidity (RH) step. Temperature was fixed at about 25° C. and the relative humidity steps (0 to 95% RH) were in 5-10% increments. Sample sizes ranged from 3 to 30 mg. After DVS measurement, XRPD was measured in order to check the solid form. Dynamic Vapor sorption (DVS) moisture sorption isotherms were generated using IGA-sorp moisture sorption analyzer (Hiden Analytical). Sample measurements were run without drying before analyses. XRPD was measured in order to check any changes of the solid form after the moisture sorption/desorption. The measurement condition is shown below: • Time at each RH steps: From 30 to 120 minutes • Relative humidity steps: 5 or 10% steps • Temperature: 25° C.

Data set [4] is described as follows: Polymorph study of Compound 1 Hydrochloride (solvent, slurry screening, scale up; FT-Raman/XRPD). The conditions noted are these: on filtration/drying, humidity or room temperature. On the procedure:
FT-Raman analyses were performed by using MultiRAM (Bruker Optics). Each suspension or dry powder sample was measured from out of glass vial. The measurement condition is shown below: • Excitation wavelength: 1064 nm • Laser power: 500 mW • Wavenumber: 4 cm-1 • Sample scan: 128 times
X-ray Powder Diffraction (XRPD) spectra were obtained by X′ pert Pro MPD (Spectris). X-rays was generated with Cu Kα radiation. The powder samples were put on the reflection free sample plate. The XRPD patterns were analyzed by HighScorePlus. The measurement condition is shown below: • Range angle: From 4 to 30°, to 40° and to 65° (20) • Step size: 0.017° • Time per step: 100 s
Compound 1 Hydrochloride, Form HA (about 5 mg) was put into each small glass vial and various types of solvents were added until the sample was dissolved at about 90° C. or boiling point. Maximum volume of solvent was about 500 μL. After the solution and suspension was heated for a few hours, the heater was switched off and the sample was cooled. The vials were preserved at about 5° C. Crystals obtained in the vials were measured directly by FT-Raman. After solvent was evaporated by opening the cap of vial, crystals obtained were also measured directly by FT-Raman. Solids were then collected and evaluated by XRPD and thermal analysis as needed.
Compound 1 Hydrochloride, Form HA (about 10 mg) was put into each small glass vial and various types of organic solvents mixed with water were added. After each sample was suspended at room temperature for about 3 days, suspended solids in the vials were measured directly by FT-Raman. Furthermore, each sample was suspended at about 50° C. for about 3 days and these were measured directly by FT-Raman. Solids were then collected and evaluated by XRPD, thermal analysis and DVS as needed.
Compound 1 Hydrochloride, Form HA (about 100 mg) was put into a glass vial and about 1 mL of EtOH mixed with water (10:1) was added. […] It was analyzed by XRPD, thermal analysis, ^1H-NMR, elemental analysis and ion-chromatography.

Data set [5] is described as follows: XRPD before and after DVS measurement (moisture sorption/desorption). As for the experimental part: as §1
Data set [6] is described as follows: Storage at 75% RH (saturated NaCl), solid form checked by Raman/XRPD. The conditions noted are these: overnight / 1 day. As for the experimental part:
Fumaric acid salt Form FB has about 3.8% weight loss from low temperature with TGA measurement. From DVS result, there is about 5% weight gain at over 75% RH, so polymorphic form seems to be changed. […] Therefore, Form FA seems to be di-hydrate. Form FB seems to be mono-hydrate. The thermal behavior of Form FA is a little different from that of Form FB. Form FA generated the experiment described above using about 28 mg of fumaric acid and about 2 mL of THE seems to be easy to be dehydrated. It can be affected by vacuum dry. When Form FA and Form FB are placed under dry condition or heated, anhydrous form can be obtained. But they are quickly transformed to be hydrous form by obtaining water in the air.
It was confirmed that Form HC was reproducible even in the scale up study. […] The NMR spectrum shown indicated no presence of organic solvents.

Regarding `CNC[C@@H]1OCCn2nc3ccccc3c21.O=P(O)(O)O` [Compound 1 Phosphate, (S)-1-(3,4-dihydro-1H-[1,4]oxazino[4,3-b]indazol-1-yl)-N-methylmethanamine phosphate], the “TGA weight loss (in words)” value in data set [1] (listed as phosphate salt, phosphate) is “large amount of weight loss at low temperature”; in data set [1] (phosphate), “large amount of weight loss from low temperature”.

In the case of `CNC[C@@H]1OCCn2nc3ccccc3c21.O=C(O)/C=C/C(=O)O` [Form FA, (S)-1-(3,4-dihydro-1H-[1,4]oxazino[4,3-b]indazol-1-yl)-N-methylmethanamine fumarate], the “transformation to another polymorph on heating” value (“transformation” for short) in data set [2] is reported as “not transformed to any other polymorph”.

On to `CNC[C@@H]1OCCn2nc3ccccc3c21.Cl` [Form HC, (S)-1-(3,4-dihydro-1H-[1,4]oxazino[4,3-b]indazol-1-yl)-N-methylmethanamine hydrochloride], for which the “weight gain when humidity increased from 0% RH to 95% RH” value in data set [3] came to 9.3%. Also, in data set [3] (between 60% RH and 70% RH), the “weight gain between 60% RH and 70% RH” value worked out at 6.5%. Moreover, the “hygroscopicity (in words)” value in data set [3] (hydrochloride) is given as “hygroscopic”. In addition, the “stability of the crystal form” value in data set [4] is listed as “Transformed to Form D at the humidity level of more than 70% RH”. Also, the “change of crystal form after DVS measurement” value (shortened to “change … after DVS measurement”) in data set [5] (hydrochloride) is recorded as “basically stable”. Also, the “change of crystal form on storage at high humidity” value in data set [6] is on record as “transformed to Form HD”. Besides, the TG weight loss in data set [1] turned out to be 6.6%.

On to `CNC[C@@H]1OCCn2nc3ccccc3c21.O=C(O)/C=C/C(=O)O` [Form FB, (S)-1-(3,4-dihydro-1H-[1,4]oxazino[4,3-b]indazol-1-yl)-N-methylmethanamine fumarate], for which the “weight gain at over 75% RH” value in data set [3] (over 75% RH) was “about 5%”. Moreover, the “change of crystal form on storage at high humidity” value in data set [6] is reported as “Form FA was observed”. Besides, the TGA weight loss entry in data set [1] (from low temperature) is “about 3.8%”.

With `CNC[C@@H]1OCCn2nc3ccccc3c21.O=S(=O)(O)c1ccccc1` [Compound 1 Besylate, (S)-1-(3,4-dihydro-1H-[1,4]oxazino[4,3-b]indazol-1-yl)-N-methylmethanamine benzenesulfonate], the “weight gain at 95% RH” value in data set [3] (about 25° C.) was “about 2%”. In data set [3] (listed as besylate, benzenesulfonate), the “hygroscopicity (in words)” value is on record as “less hygroscopicity; also recorded: low hygroscopicity”. For the same molecule, the “TGA weight loss (in words)” value in data set [1] is on record as “no weight loss until melting”.

For `CNC[C@@H]1OCCn2nc3ccccc3c21.O=C(O)/C=C/C(=O)O` [Compound 1 Fumarate, (S)-1-(3,4-dihydro-1H-[1,4]oxazino[4,3-b]indazol-1-yl)-N-methylmethanamine fumarate], the “hygroscopicity (in words)” value in data set [3] is given as “no hygroscopicity”.

Consider `CNC[C@@H]1OCCn2nc3ccccc3c21.O=S(=O)(O)c1ccccc1` [Form BA, (S)-1-(3,4-dihydro-1H-[1,4]oxazino[4,3-b]indazol-1-yl)-N-methylmethanamine benzenesulfonate], for which, in data set [3] (another batch of Form BA), the “weight gain at 90% RH” value is reported as “about 1%” and the “weight gain at 95% RH” value was “about 2%”. Also, in data set [3] (one batch of Form BA), the “weight gain at 90% RH” value is reported as “about 2%” and the “weight gain at 95% RH” value is “about 8%”. Further, in data set [3] (benzenesulfonate), the “hygroscopicity (in words)” value is on record as “less hygroscopicity; also recorded: good hygroscopicity behavior”. In data set [2], the “transformation” value is listed as “not transformed to any other polymorph”.

As for `CNC[C@@H]1OCCn2nc3ccccc3c21.Cc1ccc(S(=O)(=O)O)cc1` [Form TA, (S)-1-(3,4-dihydro-1H-[1,4]oxazino[4,3-b]indazol-1-yl)-N-methylmethanamine tosylate], the “weight gain when humidity increased from 0% RH to 95% RH” value in data set [3] is given as approximately 1%. Also, in data set [3] (tosylate), the “hygroscopicity (in words)” value is “less hygroscopicity; also recorded: good hygroscopicity behavior; also recorded: non-hygroscopicity”. Further, in data set [2] (tosylate), the “transformation” value is “not transformed to any other polymorph; also recorded: not transformed to another form until the melting point”. For the same molecule, the “change … after DVS measurement” value in data set [5] was “no changes of the crystal form”. Further, the “TGA weight loss (in words)” value in data set [1] is on record as “no weight loss until melting”.

As to `CNC[C@@H]1OCCn2nc3ccccc3c21.Cl` [Form HD, (S)-1-(3,4-dihydro-1H-[1,4]oxazino[4,3-b]indazol-1-yl)-N-methylmethanamine hydrochloride], the “stability of the crystal form” value in data set [4] is “Transformed to Form C at room temperature”.

For the molecule `CNC[C@@H]1OCCn2nc3ccccc3c21.Cl` [Form HA, (S)-1-(3,4-dihydro-1H-[1,4]oxazino[4,3-b]indazol-1-yl)-N-methylmethanamine hydrochloride], in data set [3] (about 25° C.), the “weight gain at 95% RH” value is “over 100%”. Further, the “hygroscopicity (in words)” value in data set [3] (hydrochloride) is “Highly hygroscopic”. Besides, the “change … after DVS measurement” value in data set [5] (hydrochloride) is reported as “transformed to Form HC mixed with an unidentified polymorph”. Besides, the TG weight loss entry in data set [1] is listed as “over 17.1%”.

Consider `CNC[C@@H]1OCCn2nc3ccccc3c21.Cl` [Form HB, (S)-1-(3,4-dihydro-1H-[1,4]oxazino[4,3-b]indazol-1-yl)-N-methylmethanamine hydrochloride], for which, in data set [4], the “stability of the crystal form” value was “transformed to Form HC or Form HA when it was filtrated and dried; also recorded: Not stable”.
